Test results from patent publication US20110218244A1, “CREATINE ß-ALANINATE: A NOVEL SALT FOR INCREASING […] PERFORMANCE” (priority 2009, published 2011).
Like-named read-outs stand apart in the source and are kept apart here.

How the values were obtained:
individuals = conditions: cited from earlier work
[1] = tested on: intramuscular carnosine content; conditions: after 10 week supplementation; cited from earlier work

Compound: NCCC(=O)N[C@@H](Cc1cnc[nH]1)C(=O)O [carnosine, β-alanyl-L-histidine]
- paraesthesia symptoms (individuals; greater quantities, ingested as dipeptides in meat): do not cause the same symptoms

Compound: NCCC(=O)O [β-alanine, 3-Aminopropanoic acid]
- amount above which ingestion causes paraesthesia (individuals; in solution or as powder in gelatin capsules): above 10 mg per kg body weight
- time at which paraesthesia begins after oral administration (individuals; oral): about 20 minutes
- increase in intramuscular carnosine content, average [1]: 80%

Compound: anserine
- paraesthesia symptoms (individuals; in vivo): do not cause the same symptoms

Compound: creatine β-alaninate
- more β-alanine administrable before eliciting symptoms of paraesthesia, compared with β-alanine alone (human subjects; administered as creatine β-alaninate): roughly 100%
- single dose administered before the onset of parasthesia was noted (human subjects; oral, gelatin capsules, human subjects): up to 55.00 mg/kg
- equivalent β-alanine dose before the onset of parasthesia (human subjects; salt mass consists of about 40.45% β-alanine): about 22.25 mg/kg
